Results taken from publication PMC4289246, “Dose-dependent effects of lesogaberan on reflux measures in patients with refractory gastroesophageal reflux disease: a randomized, placebo-controlled study” (BMC Gastroenterology, 2014).
Like-named read-outs stand apart in the source and are kept apart here.

Tests used:
[1] = tested on: patients with a partial response to PPI treatment; set-up: method as in PMID 21402616; conditions: 65 mg twice daily add-on to PPIs, phase 2a; placebo 8%; cited from earlier work
[2] = tested on: patients with GERD who have a partial response to PPI therapy; set-up: method as in PMID 20451523; conditions: 65 mg twice daily, partial responders to PPI therapy; cited from earlier work
[3] = tested on: patients with GERD who had a partial response to PPI treatment; assay: Safety and tolerability assessments; assay type: in vivo, human
Experimental: Sitting and orthostatic blood pressure and pulse rate were also assessed pre-dose and 2 h after the first dose of lesogaberan or placebo at each treatment visit. Patients ate meals (standardized primarily according to fat content and pH) approximately 1 h after each dose of study medication or placebo, and at the same time points during each study period. Patients were monitored for adverse events from the first dose administration until the follow-up visit 5–10 days after receiving the last dose. The active treatment period for each dose was defined as the time from the first dose of study drug to 24 h after the second dose of study drug in each treatment period. Patients also underwent active questioning to determine whether they experienced syncope, or feeling faint, lightheadedness, dizziness or paraesthesia before study treatment started and after removing the impedance–pH catheter. A 12-lead digital electrocardiogram (ECG) was scheduled at the screening visit, before and 2 h after the first dose of lesogaberan or placebo at each treatment visit, and at the follow-up visit. Blood and urine samples were taken at the pre-entry visit (full laboratory screen), and before and 24 h after the first dose of lesogaberan or placebo at each treatment visit (reduced laboratory screen) to assess clinical chemistry and haematology, and to screen for indications of drug abuse.
The efficacy evaluation of the different doses of lesogaberan was based on data from all patients not affected by major protocol deviations and violations relevant to the analysis of a specific variable. The safety analysis set comprised all patients who received at least one dose of lesogaberan or placebo, and for whom post-dose data were available.

[4] = tested on: partial responders to PPI treatment; set-up: method as in earlier work; conditions: cited from earlier work
[5] = Plasma pharmacokinetics of lesogaberan during 24-h dosing; assay type: in vivo, human; conditions: for AUC(0-t) / Cmax / Tmax: human, oral, plasma; for AUC(0-t): modified-release capsules, read-out: AUC (0–24 h), geometric mean
Experimental: Blood samples were taken 1 h before the first administration of each dose, and at regular intervals during the 24-h period after the first administration of each dose, to assess the concentration of lesogaberan in plasma over time. […]

[6] = 2 h after first dose, 30–240 mg

Question: For `NC[C@@H](F)C[PH](=O)O` [lesogaberan, (R)-(3-amino-2-fluoropropyl) phosphinic acid], which “proportion of responders (max one 24-h period with heartburn and/or regurgitation of not more than mild intensity during last 7 treatment days)” value [1] is on record?
Answer: 16%

Question: And the “reduction in the mean number of total reflux episodes relative to placebo” value [2]?
Answer: approximately 35%

Question: What about the “adverse events during active dosing” value ([3]; 90 mg twice in 24 h) of the same compound?
Answer: one patient reported headache and nausea

Question: What about the ECG readings ([3]; 12-lead ECG before and 2 h after first dose) of the same compound?
Answer: No clinically significant changes in ECG readings

Question: And the “adverse events resulting in discontinuation” value ([3]; 30–240 mg twice in 24 h)?
Answer: no adverse events resulted in discontinuation

Question: What about the “serious adverse events during active dosing periods” value ([3]; 30–240 mg twice in 24 h, safety analysis set n = 27) of the same compound?
Answer: No serious adverse events were reported

Question: And the “blood pressure compared with placebo” value [3, 6]?
Answer: slight decreases in blood pressure

Question: And the “pulse rate compared with placebo” value [3, 6]?
Answer: Slight increases in pulse rate

Question: And the “effect on GERD symptoms” value ([4]; 240 mg, phase 2b, partial responders to PPI treatment)?
Answer: does not have a clinically important effect on GERD symptoms

Question: What about the “patients with reversible elevated alanine transaminase levels >5 times the upper limit of normal” value ([4]; phase 2b study) of the same compound?
Answer: 6 patients

Question: And the “fraction of peak concentration (Cmax) remaining at the end of the wash-out period” value ([5]; 7–28-day washout, estimated from half-life)?
Answer: ≤ 0.01%

Question: What about the AUC(0-t) ([5]; 30 mg twice in 24 h, patients) of the same compound?
Answer: 5.25 µM·h

Question: What about the AUC(0-t) ([5]; 90 mg twice in 24 h, patients) of the same compound?
Answer: 17.3 µM·h

Question: And the AUC(0-t) ([5]; 120 mg twice in 24 h, patients)?
Answer: 22.2 µM·h

Question: And the AUC(0-t) ([5]; 240 mg twice in 24 h, patients)?
Answer: 46.9 µM·h

Question: What about the Cmax ([5]; 30 mg, evening dose, patients, read-out: C max evening, geometric mean) of the same compound?
Answer: 420 nM

Question: And the Tmax ([5]; 30 mg, evening dose, patients, read-out: t max evening, geometric mean)?
Answer: 2.2 h

Question: And the Cmax ([5]; 30 mg, morning dose, patients, read-out: C max morning, geometric mean)?
Answer: 350 nM

Question: What about the Tmax ([5]; 30 mg, morning dose, patients, read-out: t max morning, geometric mean) of the same compound?
Answer: 1.7 h

Question: What about the Cmax ([5]; 90 mg, evening dose, patients, read-out: C max evening, geometric mean) of the same compound?
Answer: 1680 nM

Question: And the Tmax ([5]; 90 mg, evening dose, patients, read-out: t max evening, geometric mean)?
Answer: 1.9 h

Question: And the Cmax ([5]; 90 mg, morning dose, patients, read-out: C max morning, geometric mean)?
Answer: 1300 nM

Question: What about the Tmax ([5]; 90 mg, morning dose, patients, read-out: t max morning, geometric mean) of the same compound?
Answer: 1.7 h

Question: What about the Cmax ([5]; 120 mg, evening dose, patients, read-out: C max evening, geometric mean) of the same compound?
Answer: 2210 nM

Question: And the Tmax ([5]; 120 mg, evening dose, patients, read-out: t max evening, geometric mean)?
Answer: 1.9 h

Question: And the Cmax ([5]; 120 mg, morning dose, patients, read-out: C max morning, geometric mean)?
Answer: 1480 nM

Question: What about the Tmax ([5]; 120 mg, morning dose, patients, read-out: t max morning, geometric mean) of the same compound?
Answer: 1.9 h

Question: And the Tmax ([5]; 240 mg, all four doses (30, 90, 120, 240 mg), morning and evening, read-out: geometric mean tmax)?
Answer: 1.7 to 2.6 h

Question: What about the Cmax ([5]; 240 mg, evening dose, patients, read-out: C max evening, geometric mean) of the same compound?
Answer: 4180 nM

Question: What about the Tmax ([5]; 240 mg, evening dose, patients, read-out: t max evening, geometric mean) of the same compound?
Answer: 2.6 h

Question: And the Cmax ([5]; 240 mg, morning dose, patients, read-out: C max morning, geometric mean)?
Answer: 3310 nM

Question: What about the Tmax ([5]; 240 mg, morning dose, patients, read-out: t max morning, geometric mean) of the same compound?
Answer: 1.7 h
